Measured values from US9688695B2, “Imidazothiadiazole and imidazopyrazine derivatives as protease activated receptor 4 (PAR4) inhibitors for treating platelet aggregation” (BRISTOL-MYERS SQUIBB COMPANY, priority 2012, dated 2017).

Molecular target: PAR4 (Homo sapiens (Human), UniProt Q96RI0)
Assay: FLIPR assay in PAR4-expressing HEK293 cells (PAR4 antagonist activity, calcium mobilization)
Format: cell-based
Conditions: H-Ala-Phe(4-F)-Pro-Gly-Trp-Leu-Val-Lys-Asn-Gly-NH2-induced calcium mobilization
Excerpt: The FLIPR assay is an exemplary in vitro assay for measuring the activity of the PAR4 antagonists of the present invention. In this assay, intracellular calcium mobilization is induced in PAR4 expressing cells by a PAR4 agonist and calcium mobilization is monitored. See, e.g., Example A.
HEK293 cells stably expressing PAR4 were generated by a standard method of transfection of human […] cDNA expression vector or by RAGE technology from Athersys Inc. (Cleveland, Ohio) and selected based on PAR4 protein expression of mRNA expression. […] These cells express endogenous PAR1 and can elicit calcium signal upon stimulation with PAR1 agonist peptide.
Counter screens for agonist activity and PAR1 antagonist activity were also performed. Briefly, HEK293 EBNA PAR4 clone 20664.1J cells were plated 24 hrs. prior to experiment in 384 well, Poly-D-Lysine coated, black, clear bottom plates (Greiner Bio-One, Monroe, N.C.). Cells were plated at 20,000 cells/well in […] growth medium and incubated at 37° C. with 5% CO2 overnight. At time of assay, media was replaced with 40 μl 1× Hank's Buffered Saline Solution (HBSS) (with 10 mM HEPES) and 20 μl test compound also diluted in 1×HBSS buffer was added at various concentrations and 0.67% DMSO final concentration on the FDSS for agonist measurement. The cells were then incubated for 30 minutes at room temperature followed by addition of 20 μl of agonist peptide for antagonist measurement on the FDSS.
As indicated above, the FLIPR assay, an in vitro assay, measures the PAR4 antagonist activity of compounds tested as described in Example A. The PRP assay, an in vitro assay, measures the PAR4 antagonist assay of the compounds tested in the presence of plasma proteins and thrombin agonist as described in Example C.

Chain of PAR4 (Q96RI0 18-385): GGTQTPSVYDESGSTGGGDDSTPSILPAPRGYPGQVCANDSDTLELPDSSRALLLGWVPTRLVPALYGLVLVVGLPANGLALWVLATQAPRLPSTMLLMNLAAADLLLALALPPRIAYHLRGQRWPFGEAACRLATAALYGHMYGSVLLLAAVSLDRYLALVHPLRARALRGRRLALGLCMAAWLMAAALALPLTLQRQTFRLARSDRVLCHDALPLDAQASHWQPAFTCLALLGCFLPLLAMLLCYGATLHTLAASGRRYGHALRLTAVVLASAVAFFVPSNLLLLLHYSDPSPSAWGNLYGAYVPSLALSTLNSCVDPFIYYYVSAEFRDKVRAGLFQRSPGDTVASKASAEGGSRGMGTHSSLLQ

EC50 [nM] | Compound
5.8 | COc1cc(OCc2csc(N3CCN(Cc4cccnc4)CC3)n2)c2cc(-c3cn4nc(C)ccc4n3)oc2c1 [Example 270]
1.3 | COC[C@@H]1CCCN1c1nc(COc2cc(OC)cc3oc(-c4cn5nc(OC)sc5n4)cc23)cs1 [Example 107, (S)-2-Methoxy-6-(6-methoxy-4-((2-(2-(methoxymethyl)pyrrolidin-1-yl)thiazol-4-yl)methoxy)benzofuran-2-yl)imidazo[2,1-b][1,3,4]thiadiazole]
0.66 | COc1cc(OCc2csc(-c3ccc(S(C)(=O)=O)cc3)n2)c2cc(-c3cn4nc(C)ccc4n3)oc2c1 [Example 234]
1.1 | COc1cc(OCc2csc(C3(c4ccc(Cl)cc4)CCOCC3)n2)c2cc(-c3cn4nc(OC)sc4n3)oc2c1 [Example 154, 6-(4-((2-(4-(4-Chlorophenyl)tetrahydro-2H-pyran-4-yl)thiazol-4-yl)methoxy)-6-methoxybenzofuran-2-yl)-2-methoxyimidazo[2,1-b][1,3,4]thiadiazole]
3.1 | COc1cc(OCc2csc(Nc3cccc(N(C)C)c3)n2)c2cc(-c3cn4nc(C)ccc4n3)oc2c1 [Example 248]
0.43 | COc1cc(OCc2csc(C3CCN(S(=O)(=O)c4ccccc4)CC3)n2)c2cc(-c3cn4nc(OC)sc4n3)oc2c1 [Example 113, 2-Methoxy-6-(6-methoxy-4-((2-(1-(phenylsulfonyl)piperidin-4-yl)thiazol-4-yl)methoxy)benzofuran-2-yl)imidazo[2,1-b][1,3,4]thiadiazole]
1.1 | COc1cc(OCc2csc(C3(c4cccc(Cl)c4)CCOC3)n2)c2cc(-c3cn4nc(OC)sc4n3)oc2c1 (centres unmarked) [Example 165, 6-(4-((2-(3-(3-Chlorophenyl)tetrahydrofuran-3-yl)thiazol-4-yl)methoxy)-6-methoxybenzofuran-2-yl)-2-methoxyimidazo[2,1-b][1,3,4]thiadiazole]
0.85 | COc1cc(OCc2csc(-c3ccc(C(=O)N4CCCCCC4)cc3)n2)c2cc(-c3cn4nc(OC)sc4n3)oc2c1 [Example 303]
0.37 | COc1cc(OCc2csc(C3CCN(S(C)(=O)=O)CC3)n2)c2cc(-c3cn4nc(OC)sc4n3)oc2c1 [Example 112, 2-Methoxy-6-(6-methoxy-4-((2-(1-(methylsulfonyl)piperidin-4-yl)thiazol-4-yl)methoxy)benzofuran-2-yl)imidazo[2,1-b][1,3,4]thiadiazole]
0.67 | COc1cc(OCc2csc(-c3ccc4c(c3)OCO4)n2)c2cc(-c3cn4nc(OC)sc4n3)oc2c1 [Example 57]
0.77 | COc1cc(OCc2nc(-c3ccc(C(=O)NCC(F)(F)F)cc3)sc2C)c2cc(-c3cn4nc(OC)sc4n3)oc2c1 [Example 47, 4-(4-(((6-Methoxy-2-(2-methoxyimidazo[2,1-b][1,3,4]thiadiazol-6-yl)benzofuran-4-yl)oxy)methyl)-5-methylthiazol-2-yl)-N-(2,2,2-trifluoroethyl)benzamide]
0.63 | COc1cc(OCc2nc(N3CCOCC3)oc2C)c2cc(-c3cn4nc(OC)sc4n3)oc2c1 [Example 97, 4-(4-(((6-Methoxy-2-(2-methoxyimidazo[2,1-b][1,3,4]thiadiazol-6-yl)benzofuran-4-yl)oxy)methyl)-5-methyloxazol-2-yl)morpholine]
0.41 | COc1ccc(C2(c3nc(COc4cc(OC)cc5oc(-c6cn7nc(OC)sc7n6)cc45)cs3)CCOCC2)cc1 [Example 159, 2-Methoxy-6-(6-methoxy-4-((2-(4-(4-methoxyphenyl)tetrahydro-2H-pyran-4-yl)thiazol-4-yl)methoxy)benzofuran-2-yl)imidazo[2,1-b][1,3,4]thiadiazole]
0.33 | COCc1sc(N2CCOCC2)nc1COc1cc(OC)cc2oc(-c3cn4nc(OC)sc4n3)cc12 [Example 90, 4-(4-(((6-Methoxy-2-(2-methoxyimidazo[2,1-b][1,3,4]thiadiazol-6-yl)benzofuran-4-yl)oxy)methyl)-5-(methoxymethyl)thiazol-2-yl)morpholine]
0.36 | COc1nn2cc(-c3cc4c(OCc5csc(-c6ccc(C(=O)N7CCCC7)cc6)n5)cc(F)cc4o3)nc2s1 [Example 183, (4-(4-(((6-Fluoro-2-(2-methoxyimidazo[2,1-b][1,3,4]thiadiazol-6-yl)benzofuran-4-yl)oxy)methyl)thiazol-2-yl)phenyl)(pyrrolidin-1-yl)methanone]
3.5 | COc1cc(OCc2csc(N3CCN(S(=O)(=O)c4ccc(C#N)cc4)CC3)n2)c2cc(-c3cn4nc(C)ccc4n3)oc2c1 [Example 237]
0.42 | COc1cc(OCc2csc(C3(O)CC(C)OC(C)C3)n2)c2cc(-c3cn4nc([C@H](C)F)sc4n3)oc2c1 (stereo partly drawn) [Example 198, 4-(4-(((2-(2-((S)-1-Fluoroethyl)imidazo[2,1-b][1,3,4]thiadiazol-6-yl)-6-methoxybenzofuran-4-yl)oxy)methyl)thiazol-2-yl)-2,6-dimethyltetrahydro-2H-pyran-4-ol]
0.51 | COc1cc(OCc2nc(C3(O)CCOCC3)sc2C)c2cc(-c3cn4nc([C@H](C)F)sc4n3)oc2c1 [Example 200, (S)-4-(4-(((2-(2-(1-Fluoroethyl)imidazo[2,1-b][1,3,4]thiadiazol-6-yl)-6-methoxybenzofuran-4-yl)oxy)methyl)-5-methylthiazol-2-yl)tetrahydro-2H-pyran-4-ol]

EC50 [nM] | Compound
0.28 | COc1cc(OCc2csc(C3CCOc4ccccc43)n2)c2cc(-c3cn4nc(OC)sc4n3)oc2c1 (centres unmarked) [Example 168, 6-(4-((2-(Chroman-4-yl)thiazol-4-yl)methoxy)-6-methoxybenzofuran-2-yl)-2-methoxyimidazo[2,1-b][1,3,4]thiadiazole]
0.4 | COc1cc(OCc2csc(-c3cccnc3F)n2)c2cc(-c3cn4nc(OC)sc4n3)oc2c1 [Example 78]
1.8 | COc1cc(OCc2csc(-c3ccccc3F)n2)c2cc(-c3cn4nc(OC)sc4n3)oc2c1 [Example 26]
1.3 | COc1cc(OCc2csc(-c3cccc(C)c3)n2)c2cc(-c3cn4nc(OC)sc4n3)oc2c1 [Example 12]
0.38 | COc1nn2cc(-c3cc4c(OCc5csc(-c6ccc(C(=O)N(C)CC#N)cc6)n5)cc(F)cc4o3)nc2s1 [Example 184, N-(Cyanomethyl)-4-(4-(((6-fluoro-2-(2-methoxyimidazo[2,1-b][1,3,4]thiadiazol-6-yl)benzofuran-4-yl)oxy)methyl)thiazol-2-yl)-N-methylbenzamide]
0.46 | COc1cc(OCc2nc(-c3ccnc(F)c3)sc2C)c2cc(-c3cn4nc(OC)sc4n3)oc2c1 [Example 71]
0.27 | COc1cc(OCc2nc(N3CCOCC3)sc2C(C)(C)O)c2cc(-c3cn4nc(OC)sc4n3)oc2c1 [Example 91, 2-(4-(((6-Methoxy-2-(2-methoxyimidazo[2,1-b][1,3,4]thiadiazol-6-yl)benzofuran-4-yl)oxy)methyl)-2-morpholinothiazol-5-yl)propan-2-ol]
0.83 | COc1cc(OCc2nc(C3CCOCC3)sc2C)c2cc(-c3cn4nc(OC)sc4n3)oc2c1 [Example 95, 2-Methoxy-6-(6-methoxy-4-((5-methyl-2-(tetrahydro-2H-pyran-4-yl)thiazol-4-yl)methoxy)benzofuran-2-yl)imidazo[2,1-b][1,3,4]thiadiazole]
1.8 | COc1cc(OCc2csc(-c3ccc(C)nc3)n2)c2cc(-c3cn4nc(C)ccc4n3)oc2c1 [Example 231]
1.1 | COc1cc(OCc2csc(C3(F)CC(C)OC(C)C3)n2)c2cc(-c3cn4nc([C@H](C)F)sc4n3)oc2c1 (stereo partly drawn) [Example 199, 6-(4-((2-(4-Fluoro-2,6-dimethyltetrahydro-2H-pyran-4-yl)thiazol-4-yl)methoxy)-6-methoxybenzofuran-2-yl)-2-((S)-1-fluoroethyl)imidazo[2,1-b][1,3,4]thiadiazole]
1 | COc1cc(OCc2csc(-c3ccccc3OC)n2)c2cc(-c3cn4nc(OC)sc4n3)oc2c1 [Example 19]
24 | COc1cc(OCc2csc(-c3ccc(C(=O)NCCN(C)C)cc3)n2)c2cc(-c3cn4nc(OC)sc4n3)oc2c1 [Example 307]
0.64 | CCN(C)C(=O)c1ccc(-c2nc(COc3cc(OC)cc4oc(-c5cn6nc(OC)sc6n5)cc34)cs2)cc1 [Example 308]
0.69 | COc1cc(OCc2csc(C3CCN(C(=O)OC(C)(C)C)CC3)n2)c2cc(-c3cn4nc(OC)sc4n3)oc2c1 [Example 109, tert-Butyl 4-(4-(((6-methoxy-2-(2-methoxyimidazo[2,1-b][1,3,4]thiadiazol-6-yl)benzofuran-4-yl)oxy)methyl)thiazol-2-yl)piperidine-1-carboxylate]
0.31 | COc1cc(OCc2nc(-c3ccnc(F)c3)sc2C)c2cc(-c3cn4nc(C)ccc4n3)oc2c1 [Example 227]
1.2 | COc1cc(OCc2csc(C3(c4ccc(Cl)cc4)CCOC3)n2)c2cc(-c3cn4nc(C)ccc4n3)oc2c1 (centres unmarked) [Example 241]
2.9 | COc1cc(OCc2nc(N3CCOCC3)sc2C=O)c2cc(-c3cn4nc(OC)sc4n3)oc2c1 [Example 88, 4-(((6-Methoxy-2-(2-methoxyimidazo[2,1-b][1,3,4]thiadiazol-6-yl)benzofuran-4-yl)oxy)methyl)-2-morpholinothiazole-5-carbaldehyde]
